The assay has as its target human AMPK (full-length γ1, β1 and α1 subunits) (Homo sapiens (Human), UniProt Q13131+Q9Y478). The assay can be described thus: AMPK in vitro biochemical assay (33P-based, SAMS peptide, PP2A dephosphorylation). The conditions noted are these: for EC50: activation of phosphorylated AMPK, 33P-ATP, SAMS peptide, PP2A treatment, 4-parameter fit; for Emax: counts as % of positive control wells (enzyme, allosteric activator or AMP, PP2A and substrate), read-out: Maximum. A digest of the protocol: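 Phosphorylated full-length α1β1γ1 AMPK (E. coli-expressed, His-purified, gel-filtered) preincubated 15 min RT with compound in HEPES pH 7.5, 10 mM MgCl2 buffer, then PP2A added to dephosphorylate pThr172.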

Sequence of human AMPK (full-length γ1, β1 and α1 subunits) (Q13131 whole entry): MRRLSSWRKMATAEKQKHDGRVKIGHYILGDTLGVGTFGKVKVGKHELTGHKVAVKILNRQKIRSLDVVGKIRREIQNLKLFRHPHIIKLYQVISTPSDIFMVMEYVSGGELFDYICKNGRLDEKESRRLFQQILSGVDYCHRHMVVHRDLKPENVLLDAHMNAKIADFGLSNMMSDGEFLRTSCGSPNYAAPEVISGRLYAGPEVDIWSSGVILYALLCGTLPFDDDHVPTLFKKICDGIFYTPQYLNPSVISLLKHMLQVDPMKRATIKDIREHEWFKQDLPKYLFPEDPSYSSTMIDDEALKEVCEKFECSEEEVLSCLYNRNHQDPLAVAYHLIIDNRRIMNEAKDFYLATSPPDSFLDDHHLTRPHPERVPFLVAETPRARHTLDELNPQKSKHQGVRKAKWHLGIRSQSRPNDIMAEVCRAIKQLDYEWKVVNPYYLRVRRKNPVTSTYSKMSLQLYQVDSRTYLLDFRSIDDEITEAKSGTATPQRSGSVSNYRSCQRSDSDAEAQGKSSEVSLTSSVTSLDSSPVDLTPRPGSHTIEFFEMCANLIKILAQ
Sequence of human AMPK (full-length γ1, β1 and α1 subunits) (Q9Y478 whole entry): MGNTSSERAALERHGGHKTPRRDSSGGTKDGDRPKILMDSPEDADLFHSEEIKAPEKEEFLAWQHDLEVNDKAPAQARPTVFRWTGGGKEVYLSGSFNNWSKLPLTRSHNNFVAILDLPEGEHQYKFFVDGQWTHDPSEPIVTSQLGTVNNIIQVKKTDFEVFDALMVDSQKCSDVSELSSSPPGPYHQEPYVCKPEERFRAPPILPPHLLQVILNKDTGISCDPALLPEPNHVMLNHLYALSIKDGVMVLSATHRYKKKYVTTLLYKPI
Sequence of human AMPK (full-length γ1, β1 and α1 subunits) (P54619 whole entry partner): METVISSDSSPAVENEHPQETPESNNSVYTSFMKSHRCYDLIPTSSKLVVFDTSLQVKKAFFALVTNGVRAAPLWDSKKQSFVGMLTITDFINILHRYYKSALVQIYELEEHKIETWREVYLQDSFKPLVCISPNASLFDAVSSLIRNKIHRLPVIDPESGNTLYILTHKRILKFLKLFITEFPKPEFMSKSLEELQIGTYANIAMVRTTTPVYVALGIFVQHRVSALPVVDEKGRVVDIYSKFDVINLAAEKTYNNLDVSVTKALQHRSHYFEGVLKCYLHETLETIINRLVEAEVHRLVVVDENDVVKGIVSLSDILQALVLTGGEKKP

For the molecule `Cc1cc2[nH]cc(C(=O)O)c2cc1-c1ccc(C2(O)CCC2)cc1` [Example 35, 5-[4-(1-hydroxycyclobutyl)phenyl]-6-methyl-1H-indole-3-carboxylic acid], the EC50 (usually the concentration needed to bring the measured effect to its halfway point) came out at 74.2 nM and the Emax stood at 72%.
Consider `O=C(O)c1c[nH]c2cc(Cl)c(-c3ccc(C4CCCN4)cc3)cc12` (stereo not shown) [Example 83, 6-chloro-5-[4-(pyrrolidin-2-yl)phenyl]-1H-indole-3-carboxylic acid], for which a half-maximal response (EC50) required 819 nM and the Emax was 108%.
Consider `O=C(O)c1c[nH]c2cc(Cl)c(-c3ccc(OCC4CCO4)cc3)cc12` (stereo not shown) [Example 182, 6-chloro-5-[4-(oxetan-2-ylmethoxy)phenyl]-1H-indole-3-carboxylic acid], for which the EC50 amounted to 19 nM and the Emax turned out to be 80%.
Consider `O=C(O)c1c[nH]c2cc(Cl)c(-c3ccc(C4CCNC4)cc3)cc12` (stereo not shown) [Example 17, 6-chloro-5-[4-(pyrrolidin-3-yl)phenyl]-1H-indole-3-carboxylic acid], for which it took 126 nM to reach a half-maximal effect (EC50) and the Emax is 107%.
On to `O=C(O)c1c[nH]c2cc(Cl)c(-c3ccc(CCCO)cc3)cc12` [Example 80, 6-chloro-5-[4-(3-hydroxypropyl)phenyl]-1H-indole-3-carboxylic acid], for which the EC50 was found to be 182 nM and the Emax was 108%.
On to `O=C(O)c1n[nH]c2cc(Cl)c(-c3ccc(CO)cc3)cc12` [Example 111, 6-Chloro-5-(4-(hydroxymethyl)phenyl)-1H-indazole-3-carboxylic acid], for which the midpoint of the response, the EC50, lay at 175 nM and the Emax was 12%.
Regarding `O=C(O)c1c[nH]c2cc(F)c(-c3ccc(C4CCCO4)cc3)c(F)c12` (single isomer, unassigned) [Example 153, 4,6-difluoro-5-[4-(tetrahydrofuran-2-yl)phenyl]-1H-indole-3-carboxylic acid], the EC50 turned out to be 137 nM.
For the molecule `O=C(O)c1n[nH]c2cc(Cl)c(-c3ccc(C4CCOC4)cc3)cc12` (racemic) [Example 124, (±)-6-Chloro-5-(4-(tetrahydrofuran-3-yl)phenyl)-1H-indazole-3-carboxylic acid], the EC50 was found to be 93.8 nM and the Emax amounted to 93%.
The corresponding values for `O=C(O)c1c[nH]c2cc(Cl)c(-c3ccc(-c4ccccc4O)cc3)cc12` [Example 67, 6-chloro-5-(2′-hydroxybiphenyl-4-yl)-1H-indole-3-carboxylic acid] are 2.4 nM and 112%.
For `O=C(O)c1n[nH]c2cc(Cl)c(-c3ccc([C@H]4C[C@@H](O)C4)cc3)cc12` [Example 120, 6-Chloro-5-(4-((1S,3S)-3-hydroxycyclobutyl)phenyl)-1H-indazole-3-carboxylic acid], the EC50 was determined as 52.4 nM.
With `COc1ccc(-c2cc3c(C(=O)O)c[nH]c3cc2C#N)cc1` [Example 32, 6-Cyano-5-(4-methoxyphenyl)-1H-indole-3-carboxylic acid], the EC50 came to 570 nM and the Emax came out at 97%.
For the molecule `Cc1cc2[nH]cc(C(=O)O)c2cc1-c1ccc(C2(CO)CC2)cc1` [Example 27, 5-{4-[1-(hydroxymethyl)cyclopropyl]phenyl}-6-methyl-1H-indole-3-carboxylic acid], the EC50 is 36.9 nM and the Emax is 107%.
As for `CC(C)Oc1ccc(-c2cc3c(C(=O)O)n[nH]c3cc2Cl)cc1` [Example 100, 6-Chloro-5-(4-isopropoxyphenyl)-1H-indazole-3-carboxylic acid], a half-maximal response (EC50) required 190 nM and the Emax was determined as 80%.
Take `O=C(O)c1c[nH]c2cc(Cl)c(-c3ccc(C4(CO)CCC4)c(F)c3)cc12` [Example 142, 6-chloro-5-{3-fluoro-4-[1-(hydroxymethyl)cyclobutyl]phenyl}-1H-indole-3-carboxylic acid]: the EC50 stood at 21.5 nM and the Emax came out at 92.9%.
As to `O=C(O)c1c[nH]c2cc(Cl)c(-c3ccc(O[C@@H]4CCC[C@H]4O)cc3)cc12` (racemic) [Example 38, (±)-6-chloro-5-(4-{[trans-2-hydroxycyclopentyl]oxy}phenyl)-1H-indole-3-carboxylic acid], the response was half-maximal at 106 nM (EC50) and the Emax is 93%.
On the same counts, the results for `COc1ccc(-c2cc3c(C(=O)O)c[nH]c3cc2Cl)cc1OC` [Example 37, 6-chloro-5-(3,4-dimethoxyphenyl)-1H-indole-3-carboxylic acid] are 248 nM and 81%.
The corresponding values for `O=C(O)c1n[nH]c2cc(Cl)c(-c3ccc(CCO)cc3)cc12` [Example 109, 6-Chloro-5-(4-(2-hydroxyethyl)phenyl)-1H-indazole-3-carboxylic acid] are 82.3 nM and 94%.
The corresponding values for `O=C(O)c1n[nH]c2cc(Cl)c(-c3ccc(C4(O)CCC4)cc3)cc12` [Example 103, 6-Chloro-5-(4-(1-hydroxycyclobutyl)phenyl)-1H-indazole-3-carboxylic acid] are 8.3 nM and 80%.
Regarding `COc1cc(-c2cc3c(C(=O)O)c[nH]c3cc2Cl)ccc1[C@H]1C[C@H](O)C1` [Example 146, 6-chloro-5-[4-(trans-3-hydroxycyclobutyl)-3-methoxyphenyl]-1H-indole-3-carboxylic acid], the EC50 is 35.3 nM and the Emax was 119%.
The corresponding values for `O=C(O)c1c[nH]c2cc(Cl)c(-c3ccc(OCCN4CCOCC4)cc3)cc12` [Example 19, 6-chloro-5-{4-[2-(morpholin-4-yl)ethoxy]phenyl}-1H-indole-3-carboxylic acid] are 383 nM and 96%.
Take `O=C(O)c1n[nH]c2cc(Cl)c(-c3ccc([C@H]4C[C@H](O)C4)cc3)cc12` [Example 126, 6-Chloro-5-(4-((1R,3R)-3-hydroxycyclobutyl)phenyl)-1H-indazole-3-carboxylic acid]: the EC50 came out at 26.8 nM.
For the molecule `Cc1cc(-c2cc3c(C(=O)O)c[nH]c3cc2Cl)ccc1C1(O)CCC1` [Example 41, 6-chloro-5-[4-(1-hydroxycyclobutyl)-3-methylphenyl]-1H-indole-3-carboxylic acid], a half-maximal effect (EC50) was put at 9.6 nM and the Emax came to 62%.
`O=C(O)c1c[nH]c2cc(Cl)c(-c3ccc(C4(CO)CCC4)cc3)cc12` [Example 72, 6-chloro-5-{4-[1-(hydroxymethyl)cyclobutyl]phenyl}-1H-indole-3-carboxylic acid]: a half-maximal effect (EC50) was put at 4.3 nM and the Emax was 107%.
The corresponding values for `CS(=O)(=O)N1CCC1c1ccc(-c2cc3c(C(=O)O)c[nH]c3cc2Cl)cc1` (stereo not shown) [Example 45, 6-chloro-5-{4-[1-(methylsulfonyl)azetidin-2-yl]phenyl}-1H-indole-3-carboxylic acid] are 225 nM and 94%.
The corresponding values for `O=C(O)c1c[nH]c2cc(Cl)c(-c3ccc4c(c3)OC[C@@H](CO)O4)cc12` [Example 87, 6-chloro-5-[(2R)-2-(hydroxymethyl)-2,3-dihydro-1,4-benzodioxin-6-yl]-1H-indole-3-carboxylic acid] are 69.5 nM and 112%.
For the molecule `O=C(O)c1c[nH]c2cc(Cl)c(-c3ccc(OCCC4COC4)cc3)cc12` [Example 156, 6-chloro-5-(4-(2-(oxetan-3-yl)ethoxy)phenyl)-1H-indole-3-carboxylic acid], the EC50 came out at 31.9 nM and the Emax amounted to 98.9%.

The values above are taken from patent US9394285B2 (Pfizer Inc., priority 2013, dated 2016).
